Ten compounds from PMC2752672 (Biochemistry, 2009) can be followed below.

In general, Ki refers to the dissociation constant of the complex between target and ligand, obtained from inhibition or displacement. As usually defined, the EC50 is the concentration that produces a half-maximal response. A word on the Emax: it is the maximal effect, on the per cent scale that the assay sets.

SMILES strings stand for the structures. Like-named read-outs stand apart in the source and are kept apart here.

Data set [1] has as its target T1, KOR (Homo sapiens, UniProt P41145). The class given is binding. The settings on record: read-out: Ki b.
Data set [2] concerns the target T1, KOR. The data set is described as follows: biochemical. Type of data set: biochemical. The settings on record: for EC50: read-out: EC50 c.
The target in data set [3] is T1, KOR. Type of data set: binding. The settings on record: read-out: Ki a.
In data set [4] the test system is C57BL/6J mice. The class given is in vivo, mouse. The settings on record: for baseline startle activity: 120-dB stimulus, all doses; for prepulse-dependent PPI: all prepulse intensities.
For data set [5], the target named is T1, KOR. The data set is described as follows: biochemical. The class given is binding.
Data set [6] in a line: storage stability of the compound. As to conditions: room temperature / prolonged storage.

T1 sequence (P41145 whole entry): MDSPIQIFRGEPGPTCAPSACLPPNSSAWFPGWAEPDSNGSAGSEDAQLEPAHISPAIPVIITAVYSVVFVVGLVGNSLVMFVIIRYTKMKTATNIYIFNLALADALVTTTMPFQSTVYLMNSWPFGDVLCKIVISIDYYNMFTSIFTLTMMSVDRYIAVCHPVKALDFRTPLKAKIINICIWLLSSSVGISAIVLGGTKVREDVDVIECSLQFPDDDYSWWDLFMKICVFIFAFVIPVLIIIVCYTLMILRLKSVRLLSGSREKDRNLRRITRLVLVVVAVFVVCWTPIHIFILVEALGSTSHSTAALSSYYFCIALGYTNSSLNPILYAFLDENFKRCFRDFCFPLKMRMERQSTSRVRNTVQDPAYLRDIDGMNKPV

For `COC(=O)C1CC(OC(=O)C(C)Cl)C(=O)C2C1(C)CCC1C(=O)OC(c3ccoc3)CC12C` (single isomer, unassigned) [RB-55-1, (22-S)-22-Chloro-22-methylsalvinorin A], the Ki in data set [1] was 0.269 ± 0.048 µM; in data set [3], 0.03 ± 0.015 µM. For the same compound, the “Relative Emax” value in data set [2] was 99 +/− 12%. In addition, the EC50 in data set [2] turned out to be 0.16 µM.
The corresponding values for `COC(=O)C1CC(OC(=O)C(C)Cl)C(=O)C2C1(C)CCC1C(=O)OC(c3ccoc3)CC12C` (single isomer, unassigned) [RB-55-2, (22-R)-22-Chloro-22-methylsalvinorin A] are above 3 µM, 0.058 ± 0.032 µM, 98 +/− 8% and 0.273 µM.
In the case of `Oc1ccc2c3c1O[C@H]1c4[nH]c5c(c4C[C@@]4(O)[C@@H](C2)N(CC2CC2)CC[C@]314)C[C@@]1(O)[C@H]2Cc3ccc(O)c4c3[C@@]1(CCN2CC1CC1)[C@H]5O4` [Nor-BNI, nor-binaltorphimine, reference compound], the “antagonism of agonist-induced disruption of PPI” value in data set [4] (mouse, in vivo) is “antagonized salvinorin A and RB-64-induced disruption of PPI”.
In the case of `COC(=O)[C@@H]1C[C@H](OC(=O)CCl)C(=O)[C@H]2[C@@]1(C)CC[C@H]1C(=O)O[C@H](c3ccoc3)C[C@]21C` [RB-48, 22-Chlorosalvinorin A], the Ki in data set [1] came out at 0.032 ± 0.015 µM. Also, in data set [2], the “Relative Emax” value came out at 85 ± 3% and the EC50 came to 0.00019 ± 1e-05 µM. The Ki in data set [3] stood at 0.0021 ± 0.0008 µM. In data set [5], the “wash-resistant inhibition of binding (preliminary studies)” value is “resulted in wash-resistant inhibition of binding”.
Turning to `COC(=O)[C@@H]1C[C@H](OC(=O)CBr)C(=O)[C@H]2[C@@]1(C)CC[C@H]1C(=O)O[C@H](c3ccoc3)C[C@]21C` [RB-50, 22-Bromosalvinorin A], the Ki in data set [1] came out at 0.0396 ± 0.0116 µM. Further, in data set [2], the “Relative Emax” value was 76 +/− 7% and the EC50 was determined as 0.011 µM. The Ki in data set [3] was 0.0015 ± 0.00022 µM. Further, in data set [5], the “irreversible inhibition of binding, tested as potential affinity ligand” value is reported as “none showed significant irreversible inhibition of binding”. Moreover, the stability on storage entry in data set [6] is “highly unstable at room temperature”.
In the case of `COC(=O)C1CC(OC(=O)C(C)Cl)C(=O)C2C1(C)CCC1C(=O)OC(c3ccoc3)CC12C` [RB-55, (22-R,S)-22-Chloro-22-methylsalvinorin A], the Ki in data set [1] was 0.189 ± 0.0701 µM; in data set [3], 0.021 ± 0.003 µM. For the same compound, in data set [2], the “Relative Emax” value was 83 +/− 10%. In data set [2], the half-maximal effective concentration (EC50) was 0.035 µM.
Take `COC(=O)[C@@H]1C[C@H](OC(=O)CSC#N)C(=O)[C@H]2[C@@]1(C)CC[C@H]1C(=O)O[C@H](c3ccoc3)C[C@]21C` [RB-64, 22-Thiocyanatosalvinorin A]: the “Null Activity (mAmp displacement)” value in data set [4] (0.005 mg/kg i.p., mice) amounted to 8.22 ± 3.73 mAmp displacement; in data set [4] (0.01 mg/kg i.p., mice) it was 16.81 ± 4.4 mAmp displacement; in data set [4] (0.05 mg/kg i.p., mice), 64.89 ± 10.88 mAmp displacement; in data set [4] (0.1 mg/kg i.p., mice), 51.6 ± 12.16 mAmp displacement. For the same compound, the “PPI responses to the 12- and 16-dB prepulses” value in data set [4] (0.005 mg/kg, p < 0.010) is listed as “depressed responses”; in data set [4] (0.05 mg/kg, p < 0.052), “increased the responses”. Moreover, the “overall PPI (overall inhibition) vs vehicle” value in data set [4] (0.1 mg/kg i.p., p < 0.046) was “significant reduction in overall inhibition”; in data set [4] (0.01 and 0.05 mg/kg i.p., p < 0.021), “marked increases in overall inhibition”. Besides, the “PPI to the 4 dB prepulse vs vehicle” value in data set [4] (0.005, 0.01, or 0.05 mg/kg, p < 0.047) is listed as “enhanced relative to vehicle”. Also, in data set [4] (0.01 and 0.05 mg/kg, p < 0.031), the “PPI to the 8-dB prepulse vs vehicle” value was “increased PPI to the 8-dB prepulse”. Also, the baseline startle activity result in data set [4] was “dose-dependent parabolic changes in baseline startle activity”. In addition, the “prepulse-dependent PPI” value in data set [4] was “disrupted prepulse-dependent PPI at all prepulse intensities”. Moreover, the “PPI responses to the 12- and 16-dB prepulses vs vehicle” value in data set [4] (highest dose (0.1 mg/kg), p < 0.003) is recorded as “significantly depressed compared to the vehicle control”. Besides, the “in vivo efficacy relative to salvinorin A” value in data set [4] (in vivo studies (PPI), mice) worked out at 20 fold. The “null activity, in words” value in data set [4] (two highest doses (0.05, 0.1 mg/kg), compared to vehicle, p < 0.001) was “increased activity”; in data set [4] (two lower doses (0.005, 0.01 mg/kg)) it was “little effect on null activity”. Moreover, in data set [2] (read-out: Relative Emax), the Emax was 95 ± 2%. Besides, the “maximum of KOR labeled” value in data set [5] was 59%. The “wash-resistant inhibition of KOR binding” value in data set [5] came to 82%. In data set [5] (EC50 for wash-resistant inhibition of binding), this compound showed an EC50 of 9 µM. For the same compound, the stability on storage result in data set [6] was “stable compound and may be stored for prolonged time without decomposition”.
In the case of `COCC(=O)O[C@H]1C[C@@H](C(=O)OC)[C@]2(C)CC[C@H]3C(=O)O[C@H](c4ccoc4)C[C@]3(C)[C@H]2C1=O` [RB-65, 22-Methoxysalvinorin A], in data set [1], the Ki stood at 0.431 ± 0.0541 µM. In data set [2], the “Relative Emax” value is reported as 99 +/− 11% and the half-maximal effective concentration (EC50) came to 0.067 µM. Also, the Ki in data set [3] came out at 0.0057 ± 0.0012 µM.
Regarding `COC(=O)C1CC(OC(=O)C(Cl)Cl)C(=O)C2C1(C)CCC1C(=O)OC(c3ccoc3)CC12C` (stereo not shown) [RB-66, 22,22-Dichlorosalvinorin A], the results for the Ki in data set [1] and in data set [3] were above 10 µM and 0.911 ± 0.17 µM, respectively. For the same compound, the “Relative Emax” value in data set [2] is 103 +/− 14%. Further, in data set [2], the EC50 was 1.68 µM.
For the compound `COC(=O)[C@@H]1C[C@H](OC(C)=O)C(=O)[C@H]2[C@@]1(C)CC[C@H]1C(=O)O[C@H](c3ccoc3)C[C@]21C` [Salvinorin A, reference compound], the “Null Activity (mAmp displacement)” value in data set [4] (0.25 mg/kg i.p., mice) came out at 19.44 ± 5.83 mAmp displacement; in data set [4] (0.5 mg/kg i.p., mice) it was 28.79 ± 3.99 mAmp displacement; in data set [4] (1.0 mg/kg i.p., mice), 13.63 ± 3.65 mAmp displacement; in data set [4] (2.0 mg/kg i.p., mice), 13.76 ± 3.65 mAmp displacement. Further, the “null activity, in words” value in data set [4] (0.5 mg/kg, compared to all other doses and vehicle, p < 0.001) was “significant increases in null activity”. For the same compound, the “PPI at the 8-, 12-, and 16-dB prepulses vs vehicle” value in data set [4] (2 mg/kg) is reported as “marked reductions in PPI”. Also, the “PPI responses to 4 dB prepulse vs vehicle” value in data set [4] (2 mg/kg) is “unchanged from the vehicle control”. The “overall PPI (overall inhibition) vs vehicle” value in data set [4] (2 mg/kg i.p., p < 0.044) was “significantly suppressed inhibition”; in data set [4] (0.25, 0.5, or 1 mg/kg i.p.), “similar”. In addition, the “PPI responses at the 8- and 12-dB prepulses vs vehicle” value in data set [4] (0.25, 0.5, or 1 mg/kg) is “similar”. Also, in data set [4] (0.25, 0.5 or 1 mg/kg, p < 0.051), the “PPI to the 4-dB prepulse vs vehicle” value was “increased PPI to the 4-dB prepulse”. Moreover, the baseline startle activity entry in data set [4] is “dose-dependent parabolic changes in baseline startle activity”. Further, the “prepulse-dependent PPI” value in data set [4] is reported as “disrupted prepulse-dependent PPI at all prepulse intensities”. Also, the “effect on radioligand binding after incubation and washing (controls)” value in data set [5] is listed as “did not substantially alter radioligand binding”.
